“Also recorded” adds a separate entry of the source.
System: mouse vibrissa follicles
Assay: Mouse vibrissa organ culture system
Assay type: cell-based, mice
Conditions: 4 days
Protocol: Whisker pads were isolated from three 5 week old female C57/BL mice and were shortly immersed in 70% ethanol in phosphate-buffered saline (PBS), followed by a 10 minute incubation in William's E medium containing 400 U/ml penicillin, 400 μg/ml streptomycin, and 1.0 μg/ml fungizone (all from GibcoBRL). Vibrissa follicles in the anagen growth phase were isolated under a dissecting microscope, and the part of the vibrissa shaft that extend over the epidermal surface was cut off. Vibrissa follicles were then incubated on Millapore membranes in William's E medium alone (n-8), in medium containing 50 ng/ml recombinant murine VEGF (R&D Systems; n=6), or medium containing 5% fetal bovine serum (FBS; n=8). The media were replaced by fresh media after 2 days, and the follicles were incubated over a total period of 4 days. After 4 days, the length of the outgrowing hair shafts was measured by image analysis of digital pictures, taken under a Nikon E600 microscope.
In addition, whisker follicles were isolated and cultured as described above. Seven follicles were treated with 5 μg/ml of a goat anti-mouse VEGF neutralizing antibody (R&D Systems), and 8 follicles were treated with 5 μg/ml of normal goat IgG.

VEGF
average hair growth (length of outgrowing hair shafts) (50 ng/ml recombinant murine VEGF, control 1.963±0.101 mm): 1.959±0.086 mm | effect on in vitro hair growth compared with control (vibrissa organ culture, absence of a vascular system): no significant differences; also recorded: did not influence
